Measured values as given in patent US20250353864A1, “INDAZOLE CONTAINING MACROCYCLES AND THEIR USE” (BLOSSOMHILL THERAPEUTICS, INC., priority 2022, published 2025).

How the values were obtained:
Type in all cases: biochemical
CLK4 = CLK4 (Homo sapiens (Human), UniProt Q9HAZ1); assay: Inhibition of CLK4 kinase activity evaluated at Nanosyn (ADP-Glo); conditions: ADP-Glo luminescence
Experimental: (§1) Inhibition of CLK, CLK2, CLK3 and CLK4 Kinase Activity Evaluated at Nanosyn
(§2) Kinase protein and substrate were pre-diluted in the HEPES assay buffer (100 mM HEPES, pH 7.5, 0.01% Triton X-100, 0.1% BSA, 5 mM MgCl2, […] DTT, 10 Sodium Orthovanadate, […] Beta-Glycerophosphate) dispensed into 384 well plate (5 μL per well). Control samples (0%-inhibition in the absence of inhibitor, DMSO only) and 100%-inhibition (in the absence of enzyme) were assembled in replicates of six and were used to calculate %-inhibition in the presence of compounds. Test compounds were added to the protein samples by acoustic dispensing (Labcyte Echo550). Concentration of DMSO was equalized to 1% in all samples. Reactions were initiated by addition of ATP by acoustic dispensing (Labcyte Echo550) and incubated according to assay specific incubation time. After incubation. 5 μL of Promega ADP-Glo reagent was added and incubated for 40 minutes. After 40 minutes, 10 uL of Promega kinase detection reagent was added. After 10 min of incubation with Kinase detection reagent, the luminescence was read on microplate reader (Biotek Synergy).

CLK1 = CLK1 (Homo sapiens (Human), UniProt P49759); assay: Inhibition of CLK1 kinase activity evaluated at Nanosyn (ADP-Glo); conditions: ADP-Glo luminescence
Experimental: as §1, §2

EGFR (D770_N771insNPG) = EGFR (D770_N771insNPG) (Homo sapiens (Human), UniProt P00533, INS770NPG); assay: HotSpot radiometric kinase assay, EGFR (D770_N771insNPG); conditions: 10 μM ATP, read-out: EGFR (Δ770_N771insNPG) IC50
How it was run: (§3)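 IC50 values come from curve fits of ^33P incorporation captured on P81 filters after acid washing. Kinase reactions ran 120 min at room temperature with 10 μM ATP, added about 20 min after compound. Buffer was Hepes pH 7.5 containing Mg, DTT and 1% DMSO.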

[1] = molecular target: EGFR Δ746-750/C797S mutant (Homo sapiens (Human), UniProt P00533, C797S/DEL746-750); assay: HotSpot radiometric kinase assay, EGFR Δ746-750/C797S mutant; conditions: 10 μM ATP
How it was run: as §3

CLK3 = CLK3 (Homo sapiens (Human), UniProt P49761); assay: Inhibition of CLK3 kinase activity evaluated at Nanosyn (ADP-Glo); conditions: ADP-Glo luminescence
Experimental: as §1, §2

EGFR L858R mutant = EGFR L858R mutant (Homo sapiens (Human), UniProt P00533, L858R); assay: HotSpot radiometric kinase assay, EGFR L858R mutant; conditions: 10 μM ATP
How it was run: as §3

EGFR L858R/T790M mutant = EGFR L858R/T790M mutant (Homo sapiens (Human), UniProt P00533, L858R/T790M); assay: HotSpot radiometric kinase assay, EGFR L858R/T790M mutant; conditions: 10 μM ATP
How it was run: as §3

EGFR Δ746-750 mutant = EGFR Δ746-750 mutant (Homo sapiens (Human), UniProt P00533, DEL746-750); assay: HotSpot radiometric kinase assay, EGFR Δ746-750 mutant; conditions: 10 μM ATP
How it was run: as §3

EGFR WT = EGFR WT (Homo sapiens (Human), UniProt P00533); assay: HotSpot radiometric kinase assay (Reaction Biology), EGFR WT; conditions: 10 μM ATP
How it was run: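 10 μM ATP (33P-labelled, final); 120 min RT; P81 filter capture, 0.75% phosphoric acid washes. Cpd preincubated ~20 min with enzyme/substrate, 20 mM Hepes pH 7.5, 10 mM MgCl2, 1% DMSO. IC50 by curve fit.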

CLK2 = CLK2 (Homo sapiens (Human), UniProt P49760); assay: Inhibition of CLK2 kinase activity evaluated at Nanosyn (ADP-Glo); conditions: ADP-Glo luminescence
Experimental: as §1, §2

[2] = molecular target: EGFR L858R/T790M/C797S mutant (Homo sapiens (Human), UniProt P00533, C797S/L858R/T790M); assay: HotSpot radiometric kinase assay, EGFR L858R/T790M/C797S mutant; conditions: 10 μM ATP
How it was run: as §3

EGFR WT, sequence (P00533 25-1210): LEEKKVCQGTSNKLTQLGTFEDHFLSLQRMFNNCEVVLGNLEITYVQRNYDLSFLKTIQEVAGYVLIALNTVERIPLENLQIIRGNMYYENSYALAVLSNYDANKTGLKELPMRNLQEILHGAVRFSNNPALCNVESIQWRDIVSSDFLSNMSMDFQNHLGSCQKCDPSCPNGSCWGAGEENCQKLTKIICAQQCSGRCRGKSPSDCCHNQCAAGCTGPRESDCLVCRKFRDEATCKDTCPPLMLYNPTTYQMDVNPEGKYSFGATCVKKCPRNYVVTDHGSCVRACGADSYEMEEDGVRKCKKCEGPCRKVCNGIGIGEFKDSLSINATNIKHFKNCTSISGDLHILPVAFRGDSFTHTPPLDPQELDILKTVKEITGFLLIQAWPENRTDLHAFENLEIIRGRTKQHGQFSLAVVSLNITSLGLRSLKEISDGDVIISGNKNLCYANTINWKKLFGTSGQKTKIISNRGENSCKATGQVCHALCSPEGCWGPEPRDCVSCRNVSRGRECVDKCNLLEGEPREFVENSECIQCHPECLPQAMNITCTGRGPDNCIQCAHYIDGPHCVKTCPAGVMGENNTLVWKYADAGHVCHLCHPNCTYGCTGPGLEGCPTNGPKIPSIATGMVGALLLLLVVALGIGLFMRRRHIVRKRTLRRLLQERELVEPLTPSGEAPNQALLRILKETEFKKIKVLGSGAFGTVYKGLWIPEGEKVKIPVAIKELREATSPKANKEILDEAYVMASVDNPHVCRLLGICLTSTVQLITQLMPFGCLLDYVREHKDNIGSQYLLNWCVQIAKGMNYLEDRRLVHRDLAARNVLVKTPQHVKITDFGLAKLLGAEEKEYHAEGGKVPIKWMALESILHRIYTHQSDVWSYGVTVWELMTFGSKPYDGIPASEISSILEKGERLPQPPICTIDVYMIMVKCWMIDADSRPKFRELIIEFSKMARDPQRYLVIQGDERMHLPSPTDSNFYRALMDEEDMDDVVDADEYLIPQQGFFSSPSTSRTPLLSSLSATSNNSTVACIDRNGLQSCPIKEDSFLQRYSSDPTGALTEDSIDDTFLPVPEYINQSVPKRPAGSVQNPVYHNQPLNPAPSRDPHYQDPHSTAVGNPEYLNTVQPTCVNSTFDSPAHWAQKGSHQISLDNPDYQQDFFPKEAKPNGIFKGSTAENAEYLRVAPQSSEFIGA
EGFR L858R/T790M/C797S mutant, sequence (P00533 25-1210 T790M/C797S/L858R): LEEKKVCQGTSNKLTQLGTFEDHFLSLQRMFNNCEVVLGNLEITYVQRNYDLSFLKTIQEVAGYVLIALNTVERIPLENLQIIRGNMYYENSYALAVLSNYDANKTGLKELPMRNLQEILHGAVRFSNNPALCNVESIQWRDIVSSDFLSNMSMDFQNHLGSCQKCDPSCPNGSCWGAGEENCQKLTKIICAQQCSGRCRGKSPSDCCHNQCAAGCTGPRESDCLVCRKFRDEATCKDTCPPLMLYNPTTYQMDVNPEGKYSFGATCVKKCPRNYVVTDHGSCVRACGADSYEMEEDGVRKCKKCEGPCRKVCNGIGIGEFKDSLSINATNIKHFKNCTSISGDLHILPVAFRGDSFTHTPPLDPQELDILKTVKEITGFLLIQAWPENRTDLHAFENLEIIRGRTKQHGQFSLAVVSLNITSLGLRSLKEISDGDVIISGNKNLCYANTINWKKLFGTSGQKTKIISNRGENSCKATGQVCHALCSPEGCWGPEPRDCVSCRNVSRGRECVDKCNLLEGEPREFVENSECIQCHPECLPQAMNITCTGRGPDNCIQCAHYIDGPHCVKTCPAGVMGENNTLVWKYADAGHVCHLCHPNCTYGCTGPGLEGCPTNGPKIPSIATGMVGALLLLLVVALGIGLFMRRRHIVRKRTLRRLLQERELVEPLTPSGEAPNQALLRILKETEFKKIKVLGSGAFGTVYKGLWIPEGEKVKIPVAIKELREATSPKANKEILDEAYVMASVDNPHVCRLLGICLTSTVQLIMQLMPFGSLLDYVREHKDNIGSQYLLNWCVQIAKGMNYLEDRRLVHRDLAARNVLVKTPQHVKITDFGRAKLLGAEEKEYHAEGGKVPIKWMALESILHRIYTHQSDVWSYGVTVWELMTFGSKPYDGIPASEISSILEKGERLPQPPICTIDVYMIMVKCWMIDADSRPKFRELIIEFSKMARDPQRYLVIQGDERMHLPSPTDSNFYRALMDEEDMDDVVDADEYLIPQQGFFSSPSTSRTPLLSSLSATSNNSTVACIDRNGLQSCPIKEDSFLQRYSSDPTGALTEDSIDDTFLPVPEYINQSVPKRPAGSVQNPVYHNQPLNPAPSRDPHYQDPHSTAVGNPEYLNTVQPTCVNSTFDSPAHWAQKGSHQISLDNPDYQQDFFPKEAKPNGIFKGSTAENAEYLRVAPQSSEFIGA
CLK2, sequence (P49760 whole entry): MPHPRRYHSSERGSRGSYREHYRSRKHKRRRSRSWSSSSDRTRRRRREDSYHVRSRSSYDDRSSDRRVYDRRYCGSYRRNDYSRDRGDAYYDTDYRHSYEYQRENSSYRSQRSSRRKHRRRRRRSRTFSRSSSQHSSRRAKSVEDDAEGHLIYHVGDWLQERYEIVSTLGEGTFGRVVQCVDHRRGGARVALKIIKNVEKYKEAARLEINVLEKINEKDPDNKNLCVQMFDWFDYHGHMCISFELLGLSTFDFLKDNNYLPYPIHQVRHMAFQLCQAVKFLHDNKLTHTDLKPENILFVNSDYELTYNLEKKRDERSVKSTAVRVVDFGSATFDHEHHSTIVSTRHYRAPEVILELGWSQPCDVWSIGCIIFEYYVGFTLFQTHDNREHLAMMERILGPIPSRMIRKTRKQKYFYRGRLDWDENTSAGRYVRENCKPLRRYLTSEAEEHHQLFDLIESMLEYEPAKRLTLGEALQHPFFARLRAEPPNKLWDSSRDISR
CLK3, sequence (P49761 whole entry): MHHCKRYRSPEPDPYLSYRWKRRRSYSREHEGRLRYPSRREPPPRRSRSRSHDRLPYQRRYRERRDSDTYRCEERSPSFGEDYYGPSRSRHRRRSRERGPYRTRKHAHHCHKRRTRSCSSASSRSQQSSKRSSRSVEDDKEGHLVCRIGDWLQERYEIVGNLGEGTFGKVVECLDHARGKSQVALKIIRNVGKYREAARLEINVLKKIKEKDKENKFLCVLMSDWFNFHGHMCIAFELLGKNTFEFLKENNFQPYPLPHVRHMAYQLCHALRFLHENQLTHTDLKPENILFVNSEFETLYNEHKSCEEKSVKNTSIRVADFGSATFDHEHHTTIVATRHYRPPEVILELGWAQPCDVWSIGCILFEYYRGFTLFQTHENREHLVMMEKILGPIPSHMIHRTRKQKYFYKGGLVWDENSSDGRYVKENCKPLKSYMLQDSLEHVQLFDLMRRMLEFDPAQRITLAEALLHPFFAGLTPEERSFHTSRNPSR
EGFR Δ746-750 mutant, sequence (P00533 other isoform, or with tags, fused parts or gaps del 1-668/del 746-750 limits assumed): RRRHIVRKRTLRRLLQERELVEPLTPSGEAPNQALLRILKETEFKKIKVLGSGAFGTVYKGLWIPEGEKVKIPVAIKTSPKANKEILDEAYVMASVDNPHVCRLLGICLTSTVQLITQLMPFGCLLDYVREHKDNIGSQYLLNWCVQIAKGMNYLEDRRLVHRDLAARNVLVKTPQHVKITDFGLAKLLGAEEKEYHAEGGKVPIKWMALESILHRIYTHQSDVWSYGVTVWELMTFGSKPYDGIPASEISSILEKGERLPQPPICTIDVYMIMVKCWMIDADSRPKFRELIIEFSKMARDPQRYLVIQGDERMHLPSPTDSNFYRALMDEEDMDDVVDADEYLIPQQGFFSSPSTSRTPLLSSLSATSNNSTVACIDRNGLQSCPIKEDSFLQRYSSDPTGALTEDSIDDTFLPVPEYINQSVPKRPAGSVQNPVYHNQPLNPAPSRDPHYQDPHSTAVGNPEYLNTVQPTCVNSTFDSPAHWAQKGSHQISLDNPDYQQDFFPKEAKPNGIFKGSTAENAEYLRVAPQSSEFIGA
EGFR (D770_N771insNPG), sequence (P00533 other isoform, or with tags, fused parts or gaps del 1-668/ins NPG behind 770 limits assumed): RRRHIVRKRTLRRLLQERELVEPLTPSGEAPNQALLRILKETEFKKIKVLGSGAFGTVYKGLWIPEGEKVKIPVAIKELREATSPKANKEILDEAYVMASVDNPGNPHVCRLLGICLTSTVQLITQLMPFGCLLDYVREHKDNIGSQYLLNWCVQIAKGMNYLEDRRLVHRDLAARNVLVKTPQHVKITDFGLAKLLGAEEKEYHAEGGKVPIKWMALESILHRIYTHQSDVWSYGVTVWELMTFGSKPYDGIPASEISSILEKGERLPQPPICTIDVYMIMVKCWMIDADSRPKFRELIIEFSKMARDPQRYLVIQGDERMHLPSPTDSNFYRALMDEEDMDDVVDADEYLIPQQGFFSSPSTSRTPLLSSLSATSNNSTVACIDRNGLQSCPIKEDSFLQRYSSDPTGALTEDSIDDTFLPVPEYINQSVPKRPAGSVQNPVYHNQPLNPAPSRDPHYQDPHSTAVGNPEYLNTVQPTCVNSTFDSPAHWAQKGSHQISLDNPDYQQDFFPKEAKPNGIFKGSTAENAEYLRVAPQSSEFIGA
EGFR Δ746-750/C797S mutant, sequence (P00533 other isoform, or with tags, fused parts or gaps C797S/del 1-668/del 746-750 limits assumed): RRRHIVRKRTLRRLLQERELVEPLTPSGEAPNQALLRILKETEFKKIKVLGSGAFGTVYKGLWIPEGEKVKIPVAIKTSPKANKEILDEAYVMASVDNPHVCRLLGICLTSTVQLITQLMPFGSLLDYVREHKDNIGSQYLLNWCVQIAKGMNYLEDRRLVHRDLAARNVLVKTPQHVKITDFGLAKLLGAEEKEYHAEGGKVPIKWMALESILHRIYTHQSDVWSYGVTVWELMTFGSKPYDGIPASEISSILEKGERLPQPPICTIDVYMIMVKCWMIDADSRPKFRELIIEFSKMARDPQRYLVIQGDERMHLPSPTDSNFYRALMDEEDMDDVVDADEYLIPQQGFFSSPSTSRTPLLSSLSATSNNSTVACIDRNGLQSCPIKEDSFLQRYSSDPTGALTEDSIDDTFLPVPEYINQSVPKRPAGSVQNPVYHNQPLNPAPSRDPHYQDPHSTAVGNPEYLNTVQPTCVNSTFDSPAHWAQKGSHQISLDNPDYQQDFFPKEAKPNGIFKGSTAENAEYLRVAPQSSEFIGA

SMILES | IC50 (CLK4) [nM] | IC50 (CLK1) [nM] | IC50 (EGFR (D770_N771insNPG)) [nM] | IC50 [1] [nM] | IC50 (CLK3) [nM] | IC50 (EGFR L858R mutant) [nM] | IC50 (EGFR L858R/T790M mutant) [nM] | IC50 (EGFR Δ746-750 mutant) [nM] | IC50 (EGFR WT) [nM] | IC50 (CLK2) [nM] | IC50 [2] [nM]
CC(C)Oc1nn(CCO)c2c1/C=C/c1n[nH]c3ccc(cc13)-c1cnn(C)c1O[C@@H](C)CN(C)[C@H]2C [Example 224, 2-{(10S,13S,17E)-8,10,12,13-tetramethyl-16-[(propan-2-yl)oxy]-2,8,10,11,12,13-hexahydro-14H-3,5-ethenotripyrazolo[3,4-f:3′,4′-j:4″,3″-n][1,4]oxazacyclopentadecin-14-yl}ethan-1-ol] | 1.46 | 0.69 | – | – | 253 | – | – | – | – | 1.16 | –
CCOc1nn(CCO)c2c1/C=C/c1n[nH]c3cc(F)c(cc13)-c1cnn(C)c1O[C@@H](C)CN(C)C2 [Example 172, 2-[(10S,17E)-16-ethoxy-19-fluoro-8,10,12-trimethyl-2,8,10,11,12,13-hexahydro-14H-3,5-ethenotripyrazolo[3,4-f:3′,4′-j:4″,3″- n][1,4]oxazacyclopentadecin-14-yl]ethan-1-ol] | 0.59 | 0.32 | 6.61 | 0.69 | 64.7 | 0.6 | 0.48 | 2.1 | 1.84 | 0.08 | 1.34
CC(=O)N1CCOc2c(cnn2C)-c2ccc3[nH]nc(c3c2)/C=C/c2c(nn(C)c2C)C1 [Example 52, 1-[(17E)-8,15,16-trimethyl-2,8,10,11,13,15-hexahydro-12H-3,5-ethenotripyrazolo[3,4-f:3′,4′-j:4″,3″- n][1,4]oxazacyclopentadecin-12-yl]ethan-1-one] | 0.56 | 0.24 | – | – | 148 | – | – | – | – | 0.19 | –
Cc1c2c(nn1C)OCCOCc1c(cnn1C)-c1ccc3[nH]nc(c3c1)/C=C/2 [Ex. 7, (17E)-8,15,16-trimethyl-2,8,9,11,12,15-hexahydro-3,5-etheno[1,4]dioxacyclopentadecino[11,10-c:15,14-c′:6,7-c″]tripyrazole] | 0.48 | 0.2 | 2120 | – | 45.2 | 687 | – | 898 | > 1000 | 0.08 | 202
Cc1noc2c1/C=C/c1n[nH]c3ccc(cc13)-c1cnn(C)c1O[C@@H](C)CN(C)C2 [Example 141, (10S,17E)-8,10,12,16-tetramethyl-2,8,10,11,12,13-hexahydro-3,5-etheno[1,2]oxazolo[5,4-f]dipyrazolo[3,4-j:4′,3′-n][1,4]oxazacyclopentadecine] | 0.13 | 0.11 | – | – | 41.9 | – | – | – | – | 0.03 | –
Cc1nn(C)c2c1/C=C/c1n[nH]c3ccc(cc13)-c1cnn(C)c1O[C@@H](C)CN(C)[C@H]2C (single isomer, unassigned) [Example 145] | 0.52 | 0.21 | – | – | 99.6 | – | – | – | – | 0.04 | –
Cc1snc2c1/C=C/c1n[nH]c3ccc(cc13)-c1cnn(C)c1O[C@@H](C)CN(C)C2 [Example 158, (10S,17E)-8,10,12,16-tetramethyl-2,8,10,11,12,13-hexahydro-3,5-ethenodipyrazolo[3,4-j:4′,3′-n][1,2]thiazolo[3,4-f][1,4]oxazacyclopentadecine] | 0.31 | 0.14 | – | – | 664 | – | – | – | – | 0.4 | –
Cc1nn(C)c2c1/C=C/c1n[nH]c3ccc(cc13)-c1cnn(C)c1COCCO2 [Ex. 6, (17E)-8,14,16-trimethyl-2,8,9,11,12,14-hexahydro-3,5-etheno[1,4]dioxacyclopentadecino[11,10-c:15,14-c′:6,7-c″ ]tripyrazole] | 0.52 | 0.34 | – | – | 178 | – | – | – | – | 0.23 | –
Cc1nn(C)c2c1/C=C/c1n[nH]c3ccc(cc13)-c1cnn(C)c1CN(C)CCO2 [Example 55, (17E)-8,10,14,16-tetramethyl-2,9,10,11,12,14-hexahydro-8H-3,5-ethenotripyrazolo[3,4-f:4′,3′-j:4″,3″- n][1,4]oxazacyclopentadecine] | 0.58 | 0.09 | 78.3 | 8.93 | 185 | 35.2 | – | 33.4 | 101 | 0.13 | 4.1
C[C@H]1CN(C)Cc2c(c(C#N)nn2CCO)/C=C/c2n[nH]c3ccc(cc23)-c2cnn(C)c2O1 [Example 208, (10S,17E)-14-(2-hydroxyethyl)-8,10,12-trimethyl-2,10,11,12,13,14-hexahydro-8H-3,5-ethenotripyrazolo[3,4-f:3′,4′-j:4″,3″-n][1,4]oxazacyclopentadecine-16-carbonitrile] | 1.53 | 0.59 | – | – | 220 | – | – | – | – | 0.13 | –

Continued, values first:

IC50 (CLK4) [nM] | IC50 (CLK1) [nM] | IC50 (EGFR (D770_N771insNPG)) [nM] | IC50 [1] [nM] | IC50 (CLK3) [nM] | IC50 (EGFR L858R mutant) [nM] | IC50 (EGFR L858R/T790M mutant) [nM] | IC50 (EGFR Δ746-750 mutant) [nM] | IC50 (EGFR WT) [nM] | IC50 (CLK2) [nM] | IC50 [2] [nM] | SMILES
1.3 | 0.9 | 500 | 22.9 | 1000 | 66.5 | 9.39 | 40.1 | 329 | 4.29 | 21.8 | CCOc1nn(CCO)c2c1/C=C/c1n[nH]c3ccc(cc13)-c1cnn(C)c1OC[C@H](CC)N(C)C2 [Example 259, 2-[(11S,17E)-16-ethoxy-11-ethyl-8,12-dimethyl-2,8,10,11,12,13-hexahydro-14H-3,5-ethenotripyrazolo[3,4-f:3′,4′-j:4″,3″-n][1,4]oxazacyclopentadecin-14-yl]ethan-1-ol]
1.57 | 1.2 | – | – | 33.4 | – | – | – | – | 1.15 | – | CCN1Cc2c(c(OC(C)C)nn2C[C@H](C)O)/C=C/c2n[nH]c3cc(F)c(cc23)-c2cnn(C)c2O[C@@H](C)C1 [Example 296, (2S)-1-{(10S,17E)-12-ethyl-19-fluoro-8,10-dimethyl-16-[(propan-2-yl)oxy]-2,8,10,11,12,13-hexahydro-14H-3,5-ethenotripyrazolo[3,4-f:3′,4′-j:4″,3″-n][1,4]oxazacyclopentadecin-14-yl}propan-2-ol]
1.36 | 1.01 | – | – | 1000 | – | – | – | – | 4.87 | – | C#Cc1nn(C)c2c1-c1ccc3[nH]nc(c3c1)/C=C/c1c(OCC)nn(CCO)c1CN(C)C[C@H](C)O2 [Example 292, 2-[(10S,17E)-16-ethoxy-6-ethynyl-8,10,12-trimethyl-2,8,10,11,12,13-hexahydro-14H-3,5-ethenotripyrazolo[3,4-f:3′,4′-j:4″,3″-n][1,4]oxazacyclopentadecin-14-yl]ethan-1-ol]
1.12 | 0.64 | – | – | 13.8 | – | – | – | – | 0.78 | – | CCNc1nn(CCO)c2c1/C=C/c1n[nH]c3ccc(cc13)-c1cnn(C)c1O[C@@H](C)CN(C)C2 [Example 295, 2-[(10S,17E)-16-(ethylamino)-8,10,12-trimethyl-2,8,10,11,12,13-hexahydro-14H-3,5-ethenotripyrazolo[3,4-f:3′,4′-j:4″,3″-n][1,4]oxazacyclopentadecin-14-yl]ethan-1-ol]
38.1 | 69.4 | – | – | 1000 | – | – | – | – | 102 | – | CCOc1nn(CCO)c2c1/C=C/c1n[nH]c3ccc(cc13)-c1c(C#N)nn(C)c1O[C@@H](C)CN(CC)C2 [Example 290, (10S,17E)-16-ethoxy-12-ethyl-14-(2-hydroxyethyl)-8,10-dimethyl-2,10,11,12,13,14-hexahydro-8H-3,5-ethenotripyrazolo[3,4-f:3′,4′-j:4″,3″-n][1,4]oxazacyclopentadecine-6-carbonitrile]
1.37 | 1.27 | – | – | 1000 | – | – | – | – | 3.25 | – | CCOc1c2c(nn1C)CN(C(C)=O)CCOc1c(cnn1C)-c1ccc3[nH]nc(c3c1)/C=C/2 [Example 294, 1-[(17E)-16-ethoxy-8,15-dimethyl-2,8,10,11,13,15-hexahydro-12H-3,5-ethenotripyrazolo[3,4-f:3′,4′-j:4″,3″- n][1,4]oxazacyclopentadecin-12-yl]ethan-1-one]
